# Values of other authors as cited in patent US20020039567A1, “Methods of treating bone or cartilage conditions by the administration of creatine” (priority 1998, published 2002).
# Experiments:
# [1] = system: chick limb bud mesenchymal cells; conditions: cited from earlier work; for mineralization: addition of 1 and 2 mM ATP or 2 mM PCr; for rate of cell proliferation, rate of matrix synthesis, mean crystallite length, rate of mineral deposition: contrasted with cultures supplemented with inorganic phosphate
# [2] = system: CK activity in rat epiphyseal cartilage cells; conditions: cited from earlier work
# [3] = system: SaOS-2 cells; conditions: cited from earlier work
# [4] = system: embryonic chick femora; conditions: cited from earlier work
# [5] = system: CK activity in chondroblasts and osteoblasts; conditions: cited from earlier work
molecule,measurement,setting,value
Nc1ncnc2c1ncn2[C@@H]1O[C@H](COP(=O)(O)OP(=O)(O)OP(=O)(O)O)[C@@H](O)[C@H]1O [ATP],mineralization,[1],promoted
same,"rate of cell proliferation, rate of matrix synthesis, mean crystallite length, rate of mineral deposition",[1],does not alter
"C[C@]12CC[C@@H]3c4ccc(O)cc4CC[C@H]3[C@@H]1CC[C@@H]2O [E2, 17b-estradiol]",increase in CK activity,[2],40%
phosphocreatine [PCr],mineralization,[1],promoted
same,"rate of cell proliferation, rate of matrix synthesis, mean crystallite length, rate of mineral deposition",[1],does not alter
same,alkaline phosphatase (ALP) activity,[3],increases
same,perichondral ossification in the diaphysis,[4]; 0.1 mM in chick embryo extract with 20% horse serum,accelerated
same,deposition of calcium in the cartilage matrix of the epiphysis,[4]; very crude preparations at 0.1 mM in chick embryo extract with 20% horse serum,accelerated
CC/C(=C(\c1ccccc1)c1ccc(OCCN(C)C)cc1)c1ccccc1 [tamoxifen],effect of tamoxifen by itself,[5]; high concentrations,stimulatory effects
same,effect of E2 in presence of tamoxifen,[5]; high levels of tamoxifen,inhibited
